In data set [1] the test system is HepG2, LS180, and LS174T cells. Nature of the data set: Cell viability assay. Type of data set: cell-based, human. The note with it: 1.7 nM to 56 μM.
Data set [2] addresses hPXR and SRC-1 interaction (Homo sapiens, UniProt O75469). Nature of the data set: Mammalian two-hybrid assay in HepG2 cells. The format is cell-based. The settings on record: 24 h, 5 μM rifampicin, 5, 10 or 20 μM MET.
Data set [3] relates to CYP3A4 and MDR1 expression. Briefly: CYP3A4 and MDR1 expression in human primary hepatocytes. The format is cell-based. The settings on record: 48-h treatment, two donors.
Data set [4] relates to CYP3A4 and MDR1 expression. Nature of the data set: CYP3A4 and MDR1 expression in LS180 and LS174T intestine cells. Type of data set: cell-based, human. The note with it: Western blot. (A western blot detects proteins with antibodies after separation by electrophoresis.)
The target of data set [5] is T1, hPXR ligand-binding domain (Homo sapiens, UniProt O75469).
T1 sequence (O75469 146-433 limits assumed): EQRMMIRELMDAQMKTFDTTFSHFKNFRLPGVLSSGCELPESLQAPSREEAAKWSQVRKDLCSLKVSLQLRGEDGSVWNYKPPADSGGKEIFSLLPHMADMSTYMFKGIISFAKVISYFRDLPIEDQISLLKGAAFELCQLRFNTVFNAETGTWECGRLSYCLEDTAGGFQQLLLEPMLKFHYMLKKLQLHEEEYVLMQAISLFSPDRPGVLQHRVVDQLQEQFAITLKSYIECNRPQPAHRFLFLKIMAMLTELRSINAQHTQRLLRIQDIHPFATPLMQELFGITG
Nature of the data set: LanthaScreen TR-FRET PXR competitive ligand-binding assay. The settings on record: 1.75 μM, compared with vehicle control. On the technique in general: TR-FRET usually uses a lanthanide donor and a delayed reading to cut background.

Data set [6] addresses T2, wild-type hPXR (CYP3A4 promoter) (Homo sapiens, UniProt O75469).
T2 sequence (O75469 1-434): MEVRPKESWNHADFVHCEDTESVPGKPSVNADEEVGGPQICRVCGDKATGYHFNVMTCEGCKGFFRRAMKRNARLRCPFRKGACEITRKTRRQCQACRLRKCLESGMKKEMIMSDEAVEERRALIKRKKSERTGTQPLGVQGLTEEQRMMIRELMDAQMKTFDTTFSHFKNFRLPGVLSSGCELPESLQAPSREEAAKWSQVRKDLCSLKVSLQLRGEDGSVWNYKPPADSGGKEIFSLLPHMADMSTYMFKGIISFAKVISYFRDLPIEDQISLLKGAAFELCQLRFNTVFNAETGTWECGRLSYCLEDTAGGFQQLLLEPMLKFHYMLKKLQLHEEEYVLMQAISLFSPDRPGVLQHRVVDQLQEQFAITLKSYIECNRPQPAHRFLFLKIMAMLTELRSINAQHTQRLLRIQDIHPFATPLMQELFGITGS
Nature of the data set: CYP3A4 promoter luciferase reporter assay in HepG2 cells, wild-type hPXR. Type of data set: cell-based. The note with it: human. On the technique in general: In a reporter assay the amount or activity of a reporter protein is the signal.

In data set [7] the target is T3, wild-type hPXR (Homo sapiens, UniProt O75469).
T3 sequence (O75469 1-434): T2 sequence (O75469 1-434)
Described as above. Type of data set: cell-based. The settings on record: HepG2, 24 h, relative luciferase units (a.u.), DMSO 0.40.

Data set [8] concerns the target T4, hPXR R410A (Homo sapiens, UniProt O75469, R410A).
T4 sequence (O75469 1-434 R410A): T2 sequence (O75469 1-434) with R410A
Briefly: CYP3A4 promoter luciferase reporter assay in HepG2 cells, hPXR mutant R410A. Type of data set: cell-based. The settings on record: HepG2, 24 h, relative luciferase units (a.u.), DMSO 3.28.

Data set [9] deals with T5, hPXR R410A mutant (CYP3A4 promoter) (Homo sapiens, UniProt O75469, R410A).
T5 sequence (O75469 1-434 R410A): T2 sequence (O75469 1-434) with R410A
The description is as above. The format is cell-based. The note with it: human.

Data set [10] relates to hPXR mutants. Type of data set: cell-based, human. The note with it: 21 alanine mutants, various MET concentrations, HepG2.
Data set [11] deals with T6, hPXR (Homo sapiens, UniProt O75469).
T6 sequence (O75469 1-434): T2 sequence (O75469 1-434)
The settings on record: HEK293T cells, 24 h; for PXR activation in the screen: 28 μM.

Data set [12] concerns human carbonic anhydrase isoforms I and III. The settings on record: ref [31]; cited from earlier work.
In data set [13] the test system is human carbonic anhydrase isoforms VII, XII, and XIII. The note with it: ref [31]; cited from earlier work.
The target of data set [14] is T6, hPXR. Briefly: CYP3A4 promoter luciferase reporter assay in HepG2 cells. The note with it: HepG2, LS180 and LS174T cells, 24 h.

Positions count from the first letter of the chain named.

Chain of hPXR and SRC-1 interaction (Q15788 whole entry partner, one chain of several): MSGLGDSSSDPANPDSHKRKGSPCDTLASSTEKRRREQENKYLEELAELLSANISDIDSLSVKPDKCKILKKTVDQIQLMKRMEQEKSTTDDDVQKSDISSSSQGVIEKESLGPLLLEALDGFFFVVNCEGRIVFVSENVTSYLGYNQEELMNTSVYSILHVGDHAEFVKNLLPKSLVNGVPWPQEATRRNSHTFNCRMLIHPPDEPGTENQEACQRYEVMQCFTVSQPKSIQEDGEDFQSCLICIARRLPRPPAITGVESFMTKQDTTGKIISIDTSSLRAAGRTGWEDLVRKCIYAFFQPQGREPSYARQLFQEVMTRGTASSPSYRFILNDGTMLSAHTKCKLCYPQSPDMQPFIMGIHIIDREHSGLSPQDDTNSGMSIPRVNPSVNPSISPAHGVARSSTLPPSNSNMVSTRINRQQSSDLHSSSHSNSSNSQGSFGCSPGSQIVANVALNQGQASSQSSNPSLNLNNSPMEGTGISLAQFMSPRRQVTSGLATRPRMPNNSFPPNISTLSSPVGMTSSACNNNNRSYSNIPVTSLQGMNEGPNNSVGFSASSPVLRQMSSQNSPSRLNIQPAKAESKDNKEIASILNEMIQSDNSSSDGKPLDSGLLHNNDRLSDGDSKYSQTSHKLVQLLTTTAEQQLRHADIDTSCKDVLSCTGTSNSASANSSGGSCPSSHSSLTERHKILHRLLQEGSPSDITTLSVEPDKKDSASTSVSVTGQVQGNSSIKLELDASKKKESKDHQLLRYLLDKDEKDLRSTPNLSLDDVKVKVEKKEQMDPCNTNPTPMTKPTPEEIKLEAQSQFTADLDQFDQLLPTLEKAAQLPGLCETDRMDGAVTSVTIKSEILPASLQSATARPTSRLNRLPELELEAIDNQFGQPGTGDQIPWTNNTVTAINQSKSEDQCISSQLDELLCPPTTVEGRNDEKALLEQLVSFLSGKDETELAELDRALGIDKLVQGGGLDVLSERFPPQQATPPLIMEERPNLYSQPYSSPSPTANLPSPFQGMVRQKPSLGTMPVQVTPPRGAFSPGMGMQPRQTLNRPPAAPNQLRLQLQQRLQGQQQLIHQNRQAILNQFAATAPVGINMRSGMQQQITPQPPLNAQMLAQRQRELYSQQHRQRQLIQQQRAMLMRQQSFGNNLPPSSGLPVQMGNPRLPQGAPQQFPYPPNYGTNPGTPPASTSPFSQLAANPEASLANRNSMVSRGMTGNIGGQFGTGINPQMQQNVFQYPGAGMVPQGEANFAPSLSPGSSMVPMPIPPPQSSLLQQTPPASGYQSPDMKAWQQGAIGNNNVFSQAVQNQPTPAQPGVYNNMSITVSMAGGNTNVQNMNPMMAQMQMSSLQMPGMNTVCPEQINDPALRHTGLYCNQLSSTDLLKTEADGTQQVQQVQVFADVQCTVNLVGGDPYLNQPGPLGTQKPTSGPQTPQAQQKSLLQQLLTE

Broadly, the fold induction is the ratio of treated to control signal. A high value points to a large rise in signal. For `Cc1ccccc1N1C(=O)c2cc(S(N)(=O)=O)c(Cl)cc2NC1C` (centres unmarked) [Metolazone], the cytotoxicity result in data set [1] is “not significantly cytotoxic even at high concentration”. Besides, the “interaction between hPXR and SRC-1” value in [2] is “substantially increased the interaction between hPXR and SRC-1”. For the same molecule, the “expression of CYP3A4 and MDR1 mRNA and protein” value in [3] was “induced the expression of CYP3A4 and MDR1 mRNA and protein”. For the same molecule, in [4], the “CYP3A4 and MDR1 protein expression” value is “induced CYP3A4 and MDR1 protein expression”. For the same molecule, in [5], the “tracer binding to hPXR-LBD” value is recorded as “decreased tracer binding to hPXR-LBD substantially”. Also, the fold induction at 24 h, 10 μM in [6] was 9.83; in data set [9] it was 1.96. For the same molecule, the figures for the fold induction at 24 h, 20 μM in [6] and in data set [9] were 10.6 and 1.5, respectively. Besides, the CYP3A4 promoter activity amounted to 3.93 in data set [7] (10 μM MET), 4.22 in data set [7] (20 μM MET), 6.43 in data set [8] (10 μM MET) and 4.92 in data set [8] (20 μM MET). Besides, in [10], the “CYP3A4 promoter activity with hPXR mutants” value is “increased CYP3A4 promoter activity substantially for all PXR mutants except L240A, F281A, and F420A”. Besides, in [11] (final compound concentration 28 μM, DMSO set as 0% and rifampicin at 5 μM set as 100%), the “activation of the CYP3A4-luc reporter” value is 182%. The figures for the “inhibition of carbonic anhydrase” value in data set [12] and in data set [13] were “weak inhibitor” and “very potent”, respectively. The “activation of PXR-regulated CYP3A4 promoter activity” value in data set [14] is given as “activator of PXR activity”.

As for `NS(=O)(=O)c1cc2c(cc1C(F)(F)F)NC(Cc1ccccc1)NS2(=O)=O` (centres unmarked) [bendroflumethiazide], the “activation of PXR-regulated CYP3A4 promoter activity” value in data set [14] is “inactive”.

As to `NS(=O)(=O)c1cc2c(cc1Cl)N=C(CSCc1ccccc1)NS2(=O)=O` [benzthiazide], the “activation of PXR-regulated CYP3A4 promoter activity” value in data set [14] is “inactive”.

Turning to `NS(=O)(=O)c1cc2c(cc1Cl)NC(C1CC3C=CC1C3)NS2(=O)=O` (centres unmarked) [cyclothiazide], in data set [14], the “activation of PXR-regulated CYP3A4 promoter activity” value is recorded as “does not activate PXR”.

As for `O=C1Nc2ccc(Cl)cc2[C@@](C#CC2CC2)(C(F)(F)F)O1` [efavirenz], the “PXR activation in the screen” value in [11] is listed as “PXR activation”.

In the case of `NS(=O)(=O)c1cc2c(cc1Cl)NCNS2(=O)=O` [hydrochlorothiazide], the “activation of PXR-regulated CYP3A4 promoter activity” value in data set [14] is “inactive”.

As to `CC(C)(O)c1ccccc1CC[C@@H](SCC1(CC(=O)O)CC1)c1cccc(/C=C/c2ccc3ccc(Cl)cc3n2)c1` [montelukast], the “PXR activation in the screen” value in [11] is “PXR activation”.

In the case of `CCCCC1C(=O)N(c2ccccc2)N(c2ccccc2)C1=O` [phenylbutazone], the “PXR activation in the screen” value in data set [11] was “PXR activation”.

In the case of `Cc1cccc(C)c1NC(=O)c1cc(S(N)(=O)=O)c(Cl)cc1O` [xipamide], in [14], the “activation of PXR-regulated CYP3A4 promoter activity” value was “does not possess PXR-activating activity”.
